# Test results published in patent publication US20260055108A1, “TRIAZINE COMPOUNDS AND USES THEREOF” (HUTCHMED LIMITED, priority 2022, published 2026).
# Where two headings read alike, the source gives them in different places.
# Tests used:
# [1] = system: MV-4-11 cells (human acute myelogenous leukemia cell line carrying MLL-AF4 mutation); assay: Cell proliferation assay, MV-4-11 (CellTiter-Glo); assay type: cell-based
# Procedure, shortened: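 MV-4-11 cells (3000/well, IMDM with 10% HIFBS and 50 μM β-mercaptoethanol) exposed to compound at 1.100–0.001 μM final, 0.1% DMSO, for 3 days at 37°C. Viability read by CellTiter-Glo luminescence on day 0 and day 3, normalised to day-0 and untreated wells.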
# [2] = molecular target: Recombinant human Menin protein (2-610) / MLL polypeptide binding (Homo sapiens (Human), UniProt O00255); assay: Menin and MLL protein binding at a molecular level (fluorescence polarization method); conditions: inhibition of Menin / MLL polypeptide binding
# Procedure, shortened: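 Binding of recombinant human Menin (2-610) to 6-FAM-labelled MLL peptide measured by fluorescence polarization (ex 480/em 535 nm) in Tris/NaCl/TCEP buffer, pH 7.5, 2% DMSO. Compound preincubated with Menin 30 min at room temperature, then peptide added for 30 min in the dark. Tested at 1.000 down to 0.0005 μM final.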
# [3] = Homo sapiens, MV4-11, 72 h, MV-4-11 cells, 3 days treatment, CellTiter-Glo, read-out: GI50
# Chain of Recombinant human Menin protein (2-610) / MLL polypeptide binding (O00255 2-610): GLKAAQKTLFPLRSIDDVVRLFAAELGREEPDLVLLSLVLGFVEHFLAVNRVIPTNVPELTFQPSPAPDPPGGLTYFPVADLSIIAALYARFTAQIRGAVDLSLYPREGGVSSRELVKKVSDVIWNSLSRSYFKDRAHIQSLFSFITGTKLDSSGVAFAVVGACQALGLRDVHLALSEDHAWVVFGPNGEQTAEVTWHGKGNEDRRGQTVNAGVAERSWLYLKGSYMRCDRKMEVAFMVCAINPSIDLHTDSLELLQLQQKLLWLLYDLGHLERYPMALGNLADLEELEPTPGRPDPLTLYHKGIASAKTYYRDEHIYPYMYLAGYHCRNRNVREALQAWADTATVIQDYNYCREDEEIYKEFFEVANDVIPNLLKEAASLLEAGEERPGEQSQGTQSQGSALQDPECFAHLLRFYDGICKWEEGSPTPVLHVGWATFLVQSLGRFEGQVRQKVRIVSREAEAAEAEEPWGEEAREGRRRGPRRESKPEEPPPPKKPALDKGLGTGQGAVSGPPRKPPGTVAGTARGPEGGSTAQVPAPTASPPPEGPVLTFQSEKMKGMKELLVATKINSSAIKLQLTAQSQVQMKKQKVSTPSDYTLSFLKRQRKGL
SMILES,"GI50 [1, 3]",IC50 [2],"GI50 ([1]; MV-4-11 cells, 3 days treatment, CellTiter-Glo, read-out: GI50)","GI50 ([1]; Homo sapiens, MV4-11, 72 h)"
COc1cc(N2CCC(CN3CCC4(CC3)CN(c3ncnnc3Oc3ccc(F)cc3C(=O)OC(C)C)C4)CC2)nnc1OC [Compound 106],7 nM,0.9 nM,–,–
CCN(C(=O)c1cc(F)ccc1Oc1nncnc1N1CC2(CCN(CC3CCN(c4ccc(C#N)cc4)CC3)CC2)C1)C(C)C [Compound 51],9 nM,6.5 nM,–,–
CCN(C(=O)c1cc(F)ccc1Oc1nncnc1N1CC2(CCN(Cc3ccc4c(c3)cc(C#N)n4CCO)CC2)C1)C(C)C [Compound 162],30 nM,13.9 nM,–,–
COc1cc(N2CCC(CN3CCC4(CC3)CN(c3ncnnc3Oc3ccc(F)cc3C(=O)N3CCC[C@H]3C)C4)CC2)nnc1OC [Compound 100],9 nM,1.9 nM,–,–
COc1cc(N2CCC(CN3CCC4(CC3)CN(c3ncnnc3Oc3ccc(F)cc3C(=O)N3CCCC3)C4)CC2)nnc1OC [Compound 99],26 nM,14.7 nM,–,–
"CCN(C(=O)c1cc(F)ccc1Oc1nncnc1N1CC2(CCN(CC3CCN(C(=O)OC)CC3)CC2)C1)C(C)C [Compound 170, methyl 4-((2-(6-(2-(ethyl(isopropyl)carbamoyl)-4-fluorophenoxy)-1,2,4-triazin-5-yl)-2,7-diazaspiro[3.5]nonan-7-yl)methyl)piperidine-1-carboxylate]",–,34.4 nM,–,49 nM
CCN(C(=O)c1cc(F)ccc1Oc1nncnc1N1CC2(CCN(CC3CCN(c4cnc(OC)c(OC)c4)CC3)CC2)C1)C(C)C [Compound 111],8 nM,5.2 nM,–,–
CCN(C(=O)c1cc(F)ccc1Oc1nncnc1N1CC2(CCN(CC3CCN(c4cc(OC)c(OC)nn4)CC3)CC2)C1)C(C)C [Compound 90],2 nM,2.1 nM,–,–
CCN(C(=O)c1cc(F)ccc1Oc1nncnc1N1CC2(CCN(CC3CCN(C(=O)c4ccccc4F)CC3)CC2)C1)C(C)C [Compound 14],27 nM,29.5 nM,–,–
C#Cc1ccc(N2CCC(CN3CCC4(CC3)CN(c3ncnnc3Oc3ccc(F)cc3C(=O)N(CC)C(C)C)C4)CC2)nn1 [Compound 134],2 nM,1.3 nM,–,–
CCN(C(=O)c1cc(F)ccc1Oc1nncnc1N1CC2(CCN(CC3CCN(c4ccc(OC)nn4)CC3)CC2)C1)C(C)C [Compound 88],4 nM,1.1 nM,–,–
"CCNC(=O)c1cc(F)ccc1Oc1nncnc1N1CC2(CCN(CC3CCN(c4cc(OC)c(OC)nn4)CC3)CC2)C1 [Compound 178, 2-((5-(7-((1-(5,6-dimethoxypyridazin-3-yl)piperidin-4-yl)methyl)-2,7-diazaspiro[3.5]nonan-2-yl)-1,2,4-triazin-6-yl)oxy)-N-ethyl-5-fluorobenzamide]",126 nM,124 nM,–,–
CCN(C(=O)c1cc(F)ccc1Oc1nncnc1N1CC2(CCN(CC3CCN(c4ccc(C#N)nc4)CC3)CC2)C1)C(C)C [Compound 115],6 nM,4.7 nM,–,–
"CCNC(=O)c1cc(F)ccc1Oc1nncnc1N1CC2(CCN(CC3CCN(c4cc(OC)c(OC)nn4)CC3)CC2)C1 [Compound 179, (Z)-2-((5-(7-((1-(5,6-dimethoxypyridazin-3-yl)piperidin-4-yl)methyl)-2,7-diazaspiro[3.5]nonan-2-yl)-1,2,4-triazin-6-yl)oxy)-N-ethyl-5-fluorobenzimidic acid]",–,560 nM,155 nM,–
CCN(C(=O)c1cc(F)ccc1Oc1nnc(C)nc1N1CC2(CCN(Cc3ccc4c(cc(C#N)n4CCO)c3C)CC2)C1)C(C)C [Compound 160],54 nM,87.7 nM,–,–
CCN(C(=O)c1cc(F)ccc1Oc1nncnc1N1CC2(CCN(CC3CC=C(c4ccccn4)CC3)CC2)C1)C(C)C (stereo not shown) [Compound 123],39 nM,133 nM,–,–
CCN(C(=O)c1cc(F)ccc1Oc1nncnc1N1CC2(CCN(CC3CCN(S(C)(=O)=O)CC3)CC2)C1)C(C)C [Compound 22],87 nM,112 nM,–,–
CCN(C(=O)c1cc(F)ccc1Oc1nncnc1N1CC2(CCN(CC3CCN(c4cnccn4)CC3)CC2)C1)C(C)C [Compound 40],23 nM,11.4 nM,–,–
"CCN(C(=O)c1cc(F)ccc1Oc1nncnc1N1CC2(CCN(CC3CCN(C(=O)NC4CC4)CC3)CC2)C1)C(C)C [Compound 26, N-cyclopropyl-4-((2-(6-(2-(ethyl(isopropyl)carbamoyl)-4-fluorophenoxy)-1,2,4-triazin-5-yl)-2,7-diazaspiro[3.5]nonan-7-yl)methyl)piperidine-1-carboxamide]",–,0.9 nM,–,7 nM

# Further lines, with some results ahead:
"GI50 [1, 3]",IC50 [2],"GI50 ([1]; MV-4-11 cells, 3 days treatment, CellTiter-Glo, read-out: GI50)",SMILES,"GI50 ([1]; Homo sapiens, MV4-11, 72 h)"
15 nM,4.7 nM,–,CCN(C(=O)c1cc(F)ccc1Oc1nncnc1N1CC2(CCN(CC3CCN(c4cc(C#N)cnn4)CC3)CC2)C1)C(C)C [Compound 48],–
71 nM,50.2 nM,–,CCN(C(=O)c1cc(F)ccc1Oc1nncnc1N1CC2(CCN(Cc3ccc4oc(C)cc4c3)CC2)C1)C(C)C [Compound 68],–
> 3300 nM,> 1000 nM,–,"CCN(C(=O)c1cc(F)ccc1Oc1nncnc1N1CC(C2(N(C)Cc3cc(C(N)=O)n(C)n3)CC2)C1)C(C)C [Compound 145, 3-(((1-(1-(6-(2-(ethyl(isopropyl)carbamoyl)-4-fluorophenoxy)-1,2,4-triazin-5-yl)azetidin-3-yl)cyclopropyl)(methyl)amino)methyl)-1-methyl-1H-pyrazole-5-carboxamide]",–
2950 nM,> 1000 nM,–,CCN(C(=O)c1cc(F)ccc1Oc1nncnc1N1CCC(C2(N(Cc3ccc4[nH]c(C#N)cc4c3C)C(C)C)CC2)C1)C(C)C (stereo not shown) [Compound 143],–
1 nM,0.9 nM,–,CCN(C(=O)c1cc(F)ccc1Oc1nncnc1N1CC2(CCN(CC3CCN(c4cc(C)c(OC)nn4)CC3)CC2)C1)C(C)C [Compound 97],–
986 nM,> 1000 nM,–,"CCN(C(=O)c1cc(F)ccc1Oc1nncnc1N1CC(C2(N(C)Cc3cc(C#N)n(C)n3)CC2)C1)C(C)C [Compound 146, 2-((5-(3-(1-(((5-cyano-1-methyl-1H-pyrazol-3-yl)methyl)(methyl)amino)cyclopropyl)azetidin-1-yl)-1,2,4-triazin-6-yl)oxy)-N-ethyl-5-fluoro-N-isopropylbenzamide]",–
2 nM,0.9 nM,–,CCN(C(=O)c1cc(F)ccc1Oc1nncnc1N1CC2(CCN(CC3CCN(c4ccc(C)nn4)CC3)CC2)C1)C(C)C [Compound 84],–
5 nM,1.7 nM,–,CCN(C(=O)c1cc(F)ccc1Oc1nncnc1N1CC2(CCN(CC3CCN(C(=O)NC(C)(C)C)CC3)CC2)C1)C(C)C [Compound 30],–
187 nM,41.7 nM,–,CCN(C(=O)c1cc(F)ccc1Oc1nncnc1N1CC2(CCN(CC3CCN(C(=O)C(C)O)CC3)CC2)C1)C(C)C (stereo not shown) [Compound 10],–
15 nM,2.5 nM,–,CCN(C(=O)c1cc(F)ccc1Oc1nncnc1N1CC2(CCN(CC3CCN(C(=O)NC(C)C)CC3)CC2)C1)C(C)C [Compound 29],–
309 nM,512 nM,–,CCN(C(=O)c1cc(F)ccc1Oc1nncnc1N1CC2(CCN(Cc3ccc4oc(C)nc4c3)CC2)C1)C(C)C [Compound 67],–
230 nM,114 nM,–,CCN(C(=O)c1cc(F)ccc1Oc1nncnc1N1CC2(CCN(Cc3c(C)cc(C)[nH]c3=O)CC2)C1)C(C)C [Compound 58],–
199 nM,178 nM,–,CCN(C(=O)c1cc(F)ccc1Oc1nncnc1N1CC(C2CCCN2Cc2ccc3[nH]c(C#N)cc3c2C)C1)C(C)C (stereo not shown) [Compound 129],–
